This note sets out measurements from US20220323406A1, “METHODS AND COMPOSITIONS FOR DIFFERENTIATING STEM CELLS” (Massachusetts Institute of Technology, priority 2019, published 2022).

The test system of experiment [1] is ENR+CD organoids (ISC to Paneth cell differentiation). The experiment in a line: Primary screen: CCh-stimulated lysozyme secretion LYZ.S, 2.5-D 384-well ENR+CD organoid differentiation. The settings on record: primary screen. It is filed as cell-based, mouse. From the text:
(§1) High-throughput screening.

Experiment [2] shares this test system. The experiment in a line: Primary screen: basal (non-stimulated) lysozyme secretion LYZ.NS, 2.5-D 384-well ENR+CD organoid differentiation. It is filed as cell-based, mouse.
Description: as §1

The subject of a further experiment is ENR+CD organoids. The experiment in a line: Primary screen: ATP (CellTiter-Glo 3D, CTG) cell number/viability, 2.5-D 384-well ENR+CD organoids.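 Further: compounds given at plating and again on day 3 over a 6-day differentiation from ENR+CV stem-cell-enriched precursors, ATP measured on day 6, plate median as control.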 On the technique in general: Cellular ATP, detected with luciferase, serves as a proxy for viable cell number.
Where [3] appears, read: primary screen, standard z score, dose 0.08 uM.
Where [4] appears, read: primary screen, standard z score, dose 0.40 uM.
Where [5] appears, read: primary screen, standard z score, dose 2.00 uM.
The mark [6] stands for this setting: primary screen, standard z score, dose 10.00 uM.
Where [7] appears, read: primary screen, dose 0.08 uM, FC relative to plate median.
[8] abbreviates: primary screen, dose 0.08 uM, standard z score.
Where [9] appears, read: primary screen, dose 0.40 uM, FC relative to plate median.
[10] abbreviates: primary screen, dose 0.40 uM, standard z score.
The mark [11] stands for this setting: primary screen, dose 2.00 uM, FC relative to plate median.
Setting [12] is: primary screen, dose 2.00 uM, standard z score.
Setting [13] is: primary screen, dose 10.00 uM, FC relative to plate median.
Where [14] appears, read: primary screen, dose 10.00 uM, standard z score.

SMILES strings stand for the structures.

Take `Cc1ccc([C@@H]2O[C@H](CO)[C@@H](O)[C@H](O)[C@H]2O)cc1Cc1ccc(-c2ccc(F)cc2)s1` [Canagliflozin]: the Dose.FC.LYZ.S in experiment [1] (dose 0.08 uM) is 0.014 log2 fold change; in experiment [1] (dose 0.40 uM), −0.032 log2 fold change; in experiment [1] (dose 2.00 uM), 0.028 log2 fold change; in experiment [1] (dose 10.00 uM), −0.033 log2 fold change. For the same compound, the Dose.FC.LYZ.NS is listed as −0.027 log2 fold change in experiment [2] (primary screen, dose 0.08 uM); −0.046 log2 fold change in experiment [2] (primary screen, dose 0.40 uM); 0.025 log2 fold change in experiment [2] (primary screen, dose 2.00 uM); −0.064 log2 fold change in experiment [2] (primary screen, dose 10.00 uM). Moreover, the Z.LYZ.NS is recorded as −0.233 in experiment [2] (setting [3]), −0.398 in experiment [2] (setting [4]), 0.214 in experiment [2] (setting [5]) and −0.556 in experiment [2] (setting [6]). The Dose.FC.CTG was −0.240 log2 fold change in the experiment with ENR+CD organoids (primary screen, dose 0.08 uM); −0.098 log2 fold change in the experiment with ENR+CD organoids (primary screen, dose 0.40 uM); 0.042 log2 fold change in the experiment on ENR+CD organoids (primary screen, dose 2.00 uM); −0.079 log2 fold change with ENR+CD organoids (primary screen, dose 10.00 uM). Also, the Z.CTG was −0.572 in the experiment on ENR+CD organoids (setting [3]), −0.235 in the experiment with ENR+CD organoids (setting [4]), 0.101 in the experiment with ENR+CD organoids (setting [5]) and −0.188 in the experiment with ENR+CD organoids (setting [6]).
In the case of `Oc1ncnc2[nH]ncc12` [Allopurinol], the Dose.FC.LYZ.S in experiment [1] (dose 0.08 uM) is given as 0.026 log2 fold change; in experiment [1] (dose 0.40 uM), −0.086 log2 fold change; in experiment [1] (dose 2.00 uM), −0.064 log2 fold change; in experiment [1] (dose 10.00 uM), −0.119 log2 fold change. The Dose.FC.LYZ.NS in experiment [2] (primary screen, dose 0.08 uM) is 0.019 log2 fold change; in experiment [2] (primary screen, dose 0.40 uM), −0.036 log2 fold change; in experiment [2] (primary screen, dose 2.00 uM), −0.004 log2 fold change; in experiment [2] (primary screen, dose 10.00 uM) it was −0.051 log2 fold change. Also, the “Z.LYZ.NS (standard z score)” value is given as 0.168 in experiment [2] (primary screen, dose 0.08 uM); −0.314 in experiment [2] (primary screen, dose 0.40 uM); −0.036 in experiment [2] (primary screen, dose 2.00 uM); −0.442 in experiment [2] (primary screen, dose 10.00 uM). Further, the Dose.FC.CTG is 0.212 log2 fold change in the experiment with ENR+CD organoids (primary screen, dose 0.08 uM); −0.098 log2 fold change with ENR+CD organoids (primary screen, dose 0.40 uM); −0.162 log2 fold change in the experiment with ENR+CD organoids (primary screen, dose 2.00 uM); −0.454 log2 fold change in the experiment with ENR+CD organoids (primary screen, dose 10.00 uM).
With `Cn1cnc2c(F)c(Nc3ccc(Br)cc3Cl)c(C(=O)NOCCO)cc21` [Selumetinib (AZD6244)], the Dose.FC.LYZ.S is recorded as 0.004 log2 fold change in experiment [1] (dose 0.08 uM, FC relative to plate median); −0.047 log2 fold change in experiment [1] (dose 0.40 uM, FC relative to plate median); −0.175 log2 fold change in experiment [1] (dose 2.00 uM, FC relative to plate median); −0.211 log2 fold change in experiment [1] (dose 10.00 uM, FC relative to plate median). In addition, the Dose.FC.LYZ.NS in experiment [2] (setting [7]) is reported as 0.021 log2 fold change; in experiment [2] (setting [9]), −0.022 log2 fold change; in experiment [2] (setting [11]), −0.097 log2 fold change; in experiment [2] (setting [13]), −0.140 log2 fold change. In addition, the Z.LYZ.NS is recorded as 0.181 in experiment [2] (setting [8]), −0.188 in experiment [2] (setting [10]), −0.847 in experiment [2] (setting [12]) and −1.220 in experiment [2] (setting [14]). Moreover, the Dose.FC.CTG with ENR+CD organoids (setting [7]) is reported as 0.164 log2 fold change; with ENR+CD organoids (setting [9]) it was −0.165 log2 fold change; in the experiment with ENR+CD organoids (setting [11]), −0.257 log2 fold change; in the experiment on ENR+CD organoids (setting [13]) it was −0.852 log2 fold change. Further, the Z.CTG is 0.393 with ENR+CD organoids (setting [8]), −0.395 in the experiment on ENR+CD organoids (setting [10]), −0.613 in the experiment on ENR+CD organoids (setting [12]) and −2.035 in the experiment on ENR+CD organoids (setting [14]).
